The values below come from ChEMBL document CHEMBL3046091, “Synthesis and antimicrobial activities of 2-azetidinyl-4-quinazolinone derivatives of diclofenac analogue” (2011).

Holding throughout (type): functional
Assay [1] deals with Staphylococcus aureus. As to the kind of experiment: Antibacterial activity against Staphylococcus aureus ATCC 9144 at 50 to 100 ug/ml by cup-plate method.
Assay [2] deals with Escherichia coli. As to the kind of experiment: Antibacterial activity against Escherichia coli ATCC 25922 at 50 ug/ml by cup-plate method. The following applies: read-out: IZ.
For assay [3], the system named is Candida albicans. As to the kind of experiment: Antifungal activity against Candida albicans ATCC 10231 at 100 ug/ml by cup-plate method. The following applies: read-out: IZ.
Assay [4] concerns Candida albicans. As to the kind of experiment: Antifungal activity against Candida albicans ATCC 10231 at 50 ug/ml by cup-plate method. The following applies: read-out: IZ.
Assay [5] relates to Pseudomonas aeruginosa. Description: Antibacterial activity against Pseudomonas aeruginosa ATCC 9027 at 50 to 100 ug/ml by cup-plate method.
Assay [6] relates to Pseudomonas aeruginosa. Description: Antibacterial activity against Pseudomonas aeruginosa ATCC 9027 at 100 ug/ml by cup-plate method. The following applies: read-out: IZ.
Assay [7] concerns Escherichia coli. As to the kind of experiment: Antibacterial activity against Escherichia coli ATCC 25922 at 100 ug/ml by cup-plate method. To be noted: read-out: IZ.
Assay [8] deals with Staphylococcus aureus. As to the kind of experiment: Antibacterial activity against Staphylococcus aureus ATCC 9144 at 50 ug/ml by cup-plate method. The following applies: read-out: IZ.
In assay [9] the test system is Escherichia coli. As to the kind of experiment: Antibacterial activity against Escherichia coli ATCC 25922 at 50 to 100 ug/ml by cup-plate method.
The subject of assay [10] is Staphylococcus aureus. As to the kind of experiment: Antibacterial activity against Staphylococcus aureus ATCC 9144 at 100 ug/ml by cup-plate method. The following applies: read-out: IZ.
Assay [11] concerns Bacillus subtilis. Description: Antibacterial activity against Bacillus subtilis ATCC 6633 at 50 to 100 ug/ml by cup-plate method.
Assay [12] relates to Bacillus subtilis. Description: Antibacterial activity against Bacillus subtilis ATCC 6633 at 100 ug/ml by cup-plate method. The following applies: read-out: IZ.
Assay [13] relates to Pseudomonas aeruginosa. Description: Antibacterial activity against Pseudomonas aeruginosa ATCC 9027 at 50 ug/ml by cup-plate method. To be noted: read-out: IZ.
In assay [14] the test system is Bacillus subtilis. As to the kind of experiment: Antibacterial activity against Bacillus subtilis ATCC 6633 at 50 ug/ml by cup-plate method. To be noted: read-out: IZ.

For `O=c1c2cc(Br)ccc2nc(Cc2ccccc2Nc2c(Cl)cccc2Cl)n1-c1ccc(/N=C/c2ccccc2O)cc1`, the Activity came to 42.87% in [1], 38.83% in [5], 36.74% in assay [9] and 36% in [11]. The zone of inhibition at 50 µg/mL in assay [2] stood at 3 mm; in assay [4] it was 0 mm; in assay [8] it was 3 mm; in assay [13], 2 mm; in assay [14], 3 mm. Moreover, the zone of inhibition at 100 µg/mL came out at 1 mm in [3]; 4 mm in [6]; 5 mm in [7]; 5 mm in assay [10]; 5 mm in [12].
Take `CCN(CC)c1ccc(/C=N/c2ccc(-n3c(Cc4ccccc4Nc4c(Cl)cccc4Cl)nc4ccc(Br)cc4c3=O)cc2)c(O)c1`: the Activity in [1], in assay [5], in assay [9] and in assay [11] was 0% each time. Further, the zone of inhibition at 50 µg/mL in assay [2], in [4], in assay [8], in assay [13] and in assay [14] was 0 mm throughout. Besides, the zone of inhibition at 100 µg/mL in assay [3], in assay [6], in [7], in assay [10] and in assay [12] was 0 mm each time.
Take `O=C1C(Cl)C(c2ccccc2[N+](=O)[O-])N1c1ccc(-n2c(Cc3ccccc3Nc3c(Cl)cccc3Cl)nc3ccc(Br)cc3c2=O)cc1` (stereo not drawn): the Activity in assay [1] worked out at 36.75%; in assay [5], 46.93%; in [9], 37.56%; in assay [11], 42.68%. In addition, the zone of inhibition at 50 µg/mL in [2] was found to be 3 mm; in assay [4], 1 mm; in [8], 2 mm; in assay [13], 3 mm; in assay [14], 3 mm. Besides, the zone of inhibition at 100 µg/mL in assay [3] amounted to 2 mm; in assay [6], 6 mm; in [7], 5 mm; in assay [10], 4 mm; in assay [12], 6 mm.
As for `O=c1c2cc(Br)ccc2nc(Cc2ccccc2Nc2c(Cl)cccc2Cl)n1-c1ccc(/N=C/c2cccc([N+](=O)[O-])c2)cc1`, the Activity in assay [1] was 29.73%; in [5] it was 33.92%; in assay [9] it was 28.39%; in [11] it was 24.99%. The zone of inhibition at 50 µg/mL in assay [2] was found to be 1 mm; in [4], 1 mm; in assay [8], 1 mm; in assay [13] it was 1 mm; in assay [14] it was 2 mm. Also, the zone of inhibition at 100 µg/mL in assay [3] stood at 2 mm; in assay [6] it was 3 mm; in [7], 3 mm; in assay [10] it was 3 mm; in assay [12], 3 mm.
With `O=c1c2cc(Br)ccc2nc(Cc2ccccc2Nc2c(Cl)cccc2Cl)n1-c1ccc(/N=C/c2ccc(O)cc2)cc1`, the Activity in assay [1] turned out to be 34.85%; in assay [5] it was 44.55%; in assay [9], 31.5%; in assay [11] it was 30.5%. The zone of inhibition at 50 µg/mL stood at 2 mm in assay [2]; 0 mm in assay [4]; 3 mm in assay [8]; 2 mm in assay [13]; 2 mm in [14]. Moreover, the zone of inhibition at 100 µg/mL was found to be 1 mm in assay [3]; 5 mm in assay [6]; 4 mm in assay [7]; 4 mm in [10]; 4 mm in assay [12].
As to `O=c1c2cc(Br)ccc2nc(Cc2ccccc2Nc2c(Cl)cccc2Cl)n1-c1ccc(/N=C/c2ccccc2Cl)cc1`, the Activity came to 50.98% in [1], 44.44% in [5], 37.56% in [9] and 42.68% in assay [11]. The zone of inhibition at 50 µg/mL in [2] was found to be 3 mm; in [4] it was 1 mm; in assay [8], 3 mm; in [13], 3 mm; in assay [14], 3 mm. Further, the zone of inhibition at 100 µg/mL was 2 mm in assay [3]; 5 mm in assay [6]; 5 mm in assay [7]; 6 mm in [10]; 6 mm in assay [12].
For `O=c1c2cc(Br)ccc2nc(Cc2ccccc2Nc2c(Cl)cccc2Cl)n1-c1ccc(/N=C/c2ccc(Cl)cc2)cc1`, the Activity in [1] came out at 50.88%; in assay [5] it was 46.93%; in assay [9], 49.68%; in assay [11] it was 59.79%. Besides, the zone of inhibition at 50 µg/mL in assay [2] is 5 mm; in [4] it was 2 mm; in assay [8] it was 4 mm; in assay [13], 3 mm; in assay [14] it was 5 mm. In addition, the zone of inhibition at 100 µg/mL in assay [3] was determined as 4 mm; in [6] it was 6 mm; in assay [7], 7 mm; in assay [10] it was 6 mm; in [12], 9 mm.
As for `COc1ccc(/C=N/c2ccc(-n3c(Cc4ccccc4Nc4c(Cl)cccc4Cl)nc4ccc(Br)cc4c3=O)cc2)cc1`, the Activity in assay [1] stood at 53.85%; in assay [5] it was 52.88%; in [9], 64.33%; in assay [11] it was 63.91%. Further, the zone of inhibition at 50 µg/mL came to 5 mm in assay [2]; 2 mm in [4]; 4 mm in assay [8]; 3 mm in assay [13]; 5 mm in assay [14]. Besides, the zone of inhibition at 100 µg/mL in [3] was found to be 3 mm; in assay [6], 6 mm; in [7] it was 9 mm; in [10], 7 mm; in assay [12] it was 9 mm.
On to `COc1cc(/C=N/c2ccc(-n3c(Cc4ccccc4Nc4c(Cl)cccc4Cl)nc4ccc(Br)cc4c3=O)cc2)cc(OC)c1OC`, for which the Activity in [1] was 50.98%; in assay [5], 47.09%; in assay [9], 50%; in [11] it was 53.33%. For the same compound, the zone of inhibition at 50 µg/mL in assay [2] is 4 mm; in assay [4], 1 mm; in [8], 3 mm; in [13], 2 mm; in assay [14] it was 4 mm. The zone of inhibition at 100 µg/mL in assay [3] is 2 mm; in assay [6], 5 mm; in assay [7] it was 7 mm; in [10], 6 mm; in assay [12], 8 mm.
`COc1ccc(/C=N/c2ccc(-n3c(Cc4ccccc4Nc4c(Cl)cccc4Cl)nc4ccc(Br)cc4c3=O)cc2)c(O)c1`: the Activity is 50% in assay [1], 38.83% in assay [5], 42.86% in assay [9] and 47.81% in assay [11]. For the same compound, the zone of inhibition at 50 µg/mL in [2] was found to be 4 mm; in assay [4] it was 0 mm; in assay [8], 4 mm; in assay [13], 2 mm; in assay [14], 4 mm. The zone of inhibition at 100 µg/mL came out at 0 mm in [3]; 4 mm in assay [6]; 6 mm in assay [7]; 6 mm in [10]; 7 mm in assay [12].
For the compound `CN(C)c1ccc(/C=N/c2ccc(-n3c(Cc4ccccc4Nc4c(Cl)cccc4Cl)nc4ccc(Br)cc4c3=O)cc2)cc1`, the Activity in assay [1], in assay [5], in assay [9] and in [11] was 0% in each case. Moreover, the zone of inhibition at 50 µg/mL in assay [2], in [4], in assay [8], in assay [13] and in [14] was 0 mm throughout. For the same compound, the zone of inhibition at 100 µg/mL in assay [3] worked out at 1 mm; in assay [6] it was 0 mm; in assay [7], 0 mm; in [10] it was 0 mm; in assay [12], 0 mm.
With `O=c1c2cc(Br)ccc2nc(Cc2ccccc2Nc2c(Cl)cccc2Cl)n1-c1ccc(/N=C/c2ccccc2[N+](=O)[O-])cc1`, the Activity in assay [1] is recorded as 28.43%; in assay [5] it was 35.33%; in assay [9], 32.65%; in assay [11], 36%. In addition, the zone of inhibition at 50 µg/mL worked out at 2 mm in [2]; 1 mm in assay [4]; 2 mm in [8]; 2 mm in assay [13]; 3 mm in assay [14]. Further, the zone of inhibition at 100 µg/mL turned out to be 2 mm in [3]; 4 mm in assay [6]; 4 mm in assay [7]; 3 mm in assay [10]; 5 mm in [12].
